In patent publication US9192617B2, “Pharmaceutical composition, methods for treating and uses thereof” (Boehringer Ingelheim International GmbH, priority 2012, dated 2015):
“Also recorded” adds a separate entry of the source.

Assays:
Assay type in all cases: in vivo, Female Wistar rats
[1] = Oral glucose (2 g/kg) tolerance test on Day 30 in DIO rats; settings: for glucose tolerance (glucose AUC): OGTT 2 g/kg after 30 days of treatment, vs vehicle, FIG. 2a; for AUC of insulin during OGTT: OGTT Day 30, FIG. 2b
Method: (§1) In combination studies, sibutramine is dosed once daily with empagliflozin. Orlistat is dosed twice daily: once at the start of the dark phase (in combination with empagliflozin) and again four hours later. Blood samples are taken after approximately 2 and 4 weeks of dosing after a 4 h fast, with the exception of the combination studies with sibutramine and orlistat where samples are taken after an overnight fast. In the studies where empagliflozin is given with either orlistat or sibutramine, animals undergo an oral glucose (2 g/kg) tolerance test on Day 30 after an overnight fast. Blood samples are taken immediately before and 10, 20, 30, 60 and 120 minutes post glucose administration. At the conclusion of each experiment, carcasses are saved for body composition analysis.
(§2) Blood is collected in EDTA-coated collection tubes (Sarstedt) and immediately spun in a cooled centrifuge and the plasma stored frozen. Subsequently, plasma is assayed for content of one or more of the following: glucose, insulin, leptin, glycerol, and triacylglycerol (TAG) content. Blood (collected in an EDTA tube and frozen immediately) is assayed for HbA1c.
(§3) Commercially available enzyme-linked immunosorbent assays (ELISAs) and colorimetric kits are used to assay glucose (Thermo Electron Corp., PA, USA), insulin (Mercodia, Uppsala, Sweden), glycerol and true triglycerides (Sigma, Mo., USA), and leptin (Assay Designs, MI, USA). HbA1c is assayed by a direct enzymatic assay (Diazyme, CA, USA).
(§4) Plasma data are analysed by a general linear model with treatment as a factor. Where appropriate, data undergo a log transformation prior to analysis. Baseline plasma data and Day 1 body weight are included as covariates. HbA1c data are analysed by a robust regression model using M estimation (Huber weighting, using the default parameter c=1.345). Baseline HbA1c levels and Day 1 body weight are included as covariates. Since no differences are observed between the two and four week changes in plasma parameters, only the final plasma data for each study is detailed.

[2] = Plasma metabolic parameters on Day 30 in DIO rats; settings: FIG. 3a; for plasma glucose / plasma insulin: after 30 days of treatment, vs vehicle; for plasma leptin: Day 30, overnight fast
Method: as §1, §2, §3, §4

[3] = Carcass body composition (FoodScan NIR) of DIO rats at study conclusion; settings: FIG. 3b
Method: Carcass composition (body fat, protein and water) is determined using the FoodScan NIR (near infra-red) meat analyser (Foss, UK). Carcasses are milled at the temperature of liquid nitrogen and stored at −20° C. in sealed containers.
Carcass composition data are analysed by robust regression with treatment as factors. Day 1 body weight is included as a covariate.

[4] = Body weight in diet-induced obese (DIO) rats, chronic oral dosing; settings: Day 29, FIG. 1
Method: Female Wistar rats (weight range 250-300 g upon arrival) are obtained from Charles River (Margate, Kent) and housed in pairs or threes at a temperature of 21±4° C. and 55±20% humidity. Animals are maintained on a reverse phase light-dark cycle (lights off for 8 h from 09.30-17.30 h) during which time the room is illuminated by red light. Animals have free access to powdered high fat diet (VRF1 plus 20% lard; Special Diet Services (SDS), Witham, UK), ground chocolate (Cadbury's Dairy Milk®), ground peanuts (Big D®, Trigon Snacks Ltd.) and tap water at all times unless specified otherwise. Animals are housed for 20-24 weeks for the induction of obesity. The work reported in this manuscript is performed in accordance with UK law as detailed in the Animals (Scientific Procedures) Act 1986.
Approximately two weeks before the start of the studies, animals are housed singly in polypropylene cages with wire grid floors (so food spillage could be determined). Each cage contains an appropriate amount of paper bedding for warmth, environmental enrichment and to provide an area for animals to get off the wire grid floor. […]
Statistical analysis is performed by a Statistician. Body weight and food and water intake data are assessed by analysis of covariance (ANCOVA) with treatment as a factor, and baseline data as the covariate. […]

Compound	glucose tolerance (glucose AUC) [1]	glucose tolerance (glucose AUC) ([1]; listed as Empagliflozin)	AUC of insulin during OGTT [1]	plasma glucose [2]	plasma insulin [2]	body composition [3]	weight loss compared with vehicle-treated controls [4] [%]	plasma leptin [2]	carcass fat / body fat [3]
OC[C@H]1O[C@@H](c2ccc(Cl)c(Cc3ccc(O[C@H]4CCOC4)cc3)c2)[C@H](O)[C@@H](O)[C@@H]1O [empagliflozin, 1-chloro-4-(β-D-glucopyranos-1-yl)-2-[4-((S)-tetrahydrofuran-3-yloxy)-benzyl]-benzene]	improve glucose tolerance	significantly improve glucose tolerance	reduced significantly; also recorded: significant reductions in the glucose and insulin AUC	significantly reduces plasma glucose	significantly reduce plasma insulin; also recorded: either a small effect to reduce plasma insulin or no impact	does not significantly affect body composition	–	–	–
CCCCCCCCCCC[C@@H](C[C@@H]1OC(=O)[C@H]1CCCCCC)OC(=O)[C@H](CC(C)C)NC=O [orlistat]	does not significantly affect glucose tolerance	–	not significantly decreased	–	–	–	2.4	reduce plasma leptin	significantly and selectively reduce carcass fat
CC(C)CC(N(C)C)C1(c2ccc(Cl)cc2)CCC1 (stereo not drawn) [sibutramine]	significantly improve glucose tolerance	–	significant reductions in the glucose and insulin AUC	significantly reduces plasma glucose	significantly reduce plasma insulin; also recorded: reduces plasma insulin	–	7.0	reduce plasma leptin	significantly and selectively reduce carcass fat
